In US20200270225A1, “Chiral Diacylhydrazine Ligands for Modulating the Expression of Exogenous Genes via an Ecdysone Receptor Complex” (Intrexon Corporation, priority 2007, published 2020):

What was measured:
[1] = Solubility in pharmaceutical excipients, Assay 2 (heating, cooling, seeding); type: physicochemical; settings: supersaturated solutions seeded with crystalline substance, room temperature
Experimental: For each excipient, the lowest concentration at which R enantiomer or racemate of 2-Ethyl-3-methoxy-benzoic acid N′-(1-tert-butyl-butyl)-N′-(3,5-dimethyl-benzoyl)-hydrazide is insoluble in the FIG. 9 assay was identified. Suspensions of both materials at this same concentration were prepared in vials. Each sample was stirred at room temperature for ≤2.5 hr (treatment 1). As a separate experiment, test article/excipient combinations were heated in an aluminum block at 90° C. for 5 minutes, or longer as needed; indicated in FIG. 10, and allow to cool to room temperature, and seeded with a tiny amount of the same micronized substance. (treatment 2). The physical appearance was recorded at 72 hr or the indicated time (FIG. 10). In all cases, no change in color was observed. This solubility assay operates from a fully dissolved condition in which initial particle size and morphic form are irrelevant. […] Photos were taken of preparations in clear glass vials (R enantiomer under the conditions of assay 1 without heating to 90° C., and racemate after 90° C. treatment, cooling and seeding, not shown).

[2] = Solubility and appearance of 20 mg/mL preparations in Labrasol; type: physicochemical; settings: sonicated at 25-28° C.
Experimental: These Labrasol dosing preparations utilized micronized R enantiomer, but non-micronized racemate. To address the possibility that the non-micronized racemate specimen might bias its dissolution rate in Labrasol, an independent experiment was performed. In this experiment, the solubility and appearance of 20 mg/mL preparations of micronized and non-micronized racemate were examined. Micronized racemate (lot REH-28-9-1/PYAP-2-8-2-2M), non-micronized racemate (lot # PYAP-2-8-2-2), and micronized R enantiomer (lot # REH-28-4-2) were each suspended in Labrasol, swirled by hand, and then sonicated in a Branson 2100 table top sonicator at 25-28° C. for 3×5 min intervals and a 1×10 min interval, interspersed with swirling by hand. […] By visual inspection, the quantity of undissolved material in micronized and non-micronized racemate samples was substantially the same. […] Some larger crystal fragments remained in the non-micronized sample. Since both micronized and non-micronized samples of racemate result in similar amounts of undissovled material, it appears that the major difference between R enantiomer and racemate Labrasol preparations is the intrinsic solubility rather than the starting particle size of the solute.

[3] = Blood serum levels after oral gavage in Labrasol; type: in vivo, C57BL/6N:Crl mice; settings: 30 and 50 mg/kg/day, 9 and 12 days
Experimental: Compounds in Labrasol were administered to C57BL/6N:Crl (wild-type) mice (Charles River Laboratories) by oral gavage, the intended route of administration in humans. Dosage was set at 3, 10, 30, or 50 mg/kg/day and 2.5 mL/kg/dose (FIG. 16). Doses were administered for 9 days (first 18 females/group) or 12 days (second 18 females/group) (FIG. 16). Blood was withdrawn at 9-day and 12-day time points. Concentrations were quantified by reverse-phase HPLC.
For each concentration, the samples were prepared by adding Labrasol to solid R enantiomer or racemate in a beaker, sonicating to break up visible aggregates, and magnetic stirring until a uniform appearance was attained. The mixtures were transferred to a graduated cylinder and topped off to the requisite volume using a Labrasol rinse of the beaker. The contents of the cylinder were mixed by inversion and stirred magnetically until dosing.
Mouse blood serum levels as a function of time were measured by quantitative HPLC. […] The initial particle size differences between racemate an R enantiomer may account for a portion of the serum level differences. Also, the greater intrinsic solubility of the R enantiomer over the racemate in Labrasol may account for a portion of the serum level differences. […]

[4] = Intrinsic dissolution of compressed pellets in 1% Polysorbate 80; type: physicochemical; settings: 1% Polysorbate 80 in di-water, 37° C., up to 120 minutes
Experimental: Next, the intrinsic dissolution profiles of R enantiomer and racemate of 2-ethyl-3-methoxy-benzoic acid N′-(1-tert-butyl-butyl)-N′-(3,5-dimethyl-benzoyl)-hydrazide were determined using compressed pellets (7 mm diameter, 100 mg) in 1% Polysorbate 80 in Di-water at 37° C., according to the following test conditions:
Medium: 1% Polysorbate 80 in di-water (vacuum filtered thru a 0.8 μM filter)
Sampling volume: 1 mL (filtered thru 30 micron)
Analysis: HPLC (prepare standard solutions from each lot)
Sample size: n=2 pellets/test substance
After 120 minutes, it was observed that the pellets for both substances remained intact in the medium.

MDR1-MDCK cells = assay: Blood brain barrier penetration potential using MDR1-MDCK cells; type: in vitro ADME
Experimental: The test compounds were prepared as a 5 μM solution in HBSSg with a maximum DMSO concentration ≤1%. Confluent monolayers of MDR1-MDCK cells, 7 to 11 days old were prepared. The receiver well was prepared with 1% BSA in modified Hanks buffer (HBSSg), and the apical and basolateral sides were maintained at pH 7.4±0.2. Two monolayers were dosed in each direction (N=2): the apical side was dosed for (A→B) assessment and the basolateral side was dosed for (B→A) assessment. Test compound concentration was measured for both apical and basolateral sides at a time point of 120 minutes using a generic LC/MS/MS method with a minimum 4 point calibration curve. The reported values in FIG. 14: the percent recovery of the test compound from the Transwell® wells containing MDR1-MDCK cell monolayers; apparent permeability (Papp) in both directions; efflux ratio (Papp B→A)/(Papp A→B); and the blood-brain barrier penetration potential classification. […] Also, R enantiomer experiences less efflux. […] Higher blood-brain barrier penetration is a significant advantage for medical indications where central nervous system (CNS) penetration is required.

[5] = Dynamic vapor sorption analysis; type: physicochemical; settings: for weight loss under desiccant condition: 20% RH; for weight gain: 70% RH, after dehydration
Text: At 70% RH, the weight gain is 6.3% for the R enantiomer and 6.2% for the racemate (data not shown), indicating moderate hygroscopicity for both materials.

CCC[C@@H](N(NC(=O)c1cccc(OC)c1CC)C(=O)c1cc(C)cc(C)c1)C(C)(C)C [Example 1, (R)-3,5-Dimethyl-benzoic Acid N-(1-tert-butyl-butyl)-N′-(2-ethyl-3-methoxy-benzoyl)-hydrazide]
physical appearance of excipient solutions after seeding [1]: remains fully dissolved
solubility and appearance in Labrasol [2]: readily dissolved
blood serum levels [3]: significantly higher blood serum levels
release from compressed pellets (intrinsic dissolution) [4]: under the detection limit
blood-brain barrier penetration potential classification (MDR1-MDCK cells): moderately penetrating through the blood-brain barrier
efflux, compared (MDR1-MDCK cells): less efflux
apparent permeability (Papp), compared (MDR1-MDCK cells; A→B and B→A, 5 μM, 120 minutes): more permeable than racemate in both A→B and B→A directions
weight loss under desiccant condition [5]: 0.9 % of total weight
weight gain [5]: 6.3%

CCCC(N(NC(=O)c1cccc(OC)c1CC)C(=O)c1cc(C)cc(C)c1)C(C)(C)C (racemic) [rac-1, rac-2-ethyl-3-methoxy-benzoic acid N′-(1-tert-butyl-butyl)-N′-(3,5-dimethyl-benzoyl)-hydrazide]
physical appearance of excipient solutions after seeding [1]: precipitation/crystallization upon seeding
solubility and appearance in Labrasol [2]: remained cloudy with suspended fine particles
blood serum levels [3]: substantially lower (<4-5 fold AUC)
release from compressed pellets (intrinsic dissolution) [4]: under the detection limit
blood-brain barrier penetration potential classification (MDR1-MDCK cells): low
weight loss under desiccant condition [5]: did not show any significant weight loss
weight gain [5]: 6.2%
